Target: T1, ErbB2 (Homo sapiens, UniProt P04626)
T1 construct: expressed in transfected cells; host or cells: MCF10A human mammary epithelial cells stably expressing HER2 (MCF10A.HER2; Ueda et al., 2004)
Assay: EphA2 and ErbB2 phosphorylation in MCF10A cells overexpressing HER2 after ErbB2 kinase inhibitor (immunoprecipitation/immunoblot)
Assay type: cell-based
Conditions: 10 mg/ml AG825 for 24 or 48 hours
Protocol: For Ras and Rho/Rac pulldown assays, tumor tissue was collected, weighed, mechanically homogenized in phosphate buffered saline (PBS) pelleted, and resuspended in manufacturer recommended assay buffer (Upstate Biotechnology). Approximately […] tumor lysate was used per assay. Ras assays were performed using Raf-1 Ras binding domain-GST assay reagent (Upstate Biotechnology) as per manufacturer's protocol. Rho assays were performed using Rhotekin binding domain-GST reagents as previously described (Fang et al., 2005). For some co-immunoprecipitation assays, COST cells were co-transfected with […] each of myc-tagged erbB2 (pcDNA3-erbB2) and ephA2 (pcDNA3-EphA2) using Lipofectamine 2000 (Invitrogen). Cells were lysed in 1% NP-40 Buffer (10 mM Tris-HCl pH 7.5, 150 mM NaCl, 2 mM EDTA, 1% NP-40 plus 50 mM protease inhibitors). Lysates were used for immunoprecipitation with an anti-myc (Sigma-Aldrich) and anti-EphA2 antibodies (Santa Cruz, sc-924) antibodies. Immune complexes were resolved on SDS-PAGE and western blotted using anti-EphA2 and anti-myc antibodies. EphA2 was immunoprecipitated from MMTV-Neu cells, followed by treatment of half the samples with the 1 mM of the cross-linking agent DTSSP. Immunoprecipitates were subjected to western blot analysis using anti-ErbB2 (Neomarkers, 1:2000). EphA2 and ErbB2 were immunoprecipiated from MCF10A and MCF10A.HER2 cells as described above. […]

T1 sequence (P04626 23-1255): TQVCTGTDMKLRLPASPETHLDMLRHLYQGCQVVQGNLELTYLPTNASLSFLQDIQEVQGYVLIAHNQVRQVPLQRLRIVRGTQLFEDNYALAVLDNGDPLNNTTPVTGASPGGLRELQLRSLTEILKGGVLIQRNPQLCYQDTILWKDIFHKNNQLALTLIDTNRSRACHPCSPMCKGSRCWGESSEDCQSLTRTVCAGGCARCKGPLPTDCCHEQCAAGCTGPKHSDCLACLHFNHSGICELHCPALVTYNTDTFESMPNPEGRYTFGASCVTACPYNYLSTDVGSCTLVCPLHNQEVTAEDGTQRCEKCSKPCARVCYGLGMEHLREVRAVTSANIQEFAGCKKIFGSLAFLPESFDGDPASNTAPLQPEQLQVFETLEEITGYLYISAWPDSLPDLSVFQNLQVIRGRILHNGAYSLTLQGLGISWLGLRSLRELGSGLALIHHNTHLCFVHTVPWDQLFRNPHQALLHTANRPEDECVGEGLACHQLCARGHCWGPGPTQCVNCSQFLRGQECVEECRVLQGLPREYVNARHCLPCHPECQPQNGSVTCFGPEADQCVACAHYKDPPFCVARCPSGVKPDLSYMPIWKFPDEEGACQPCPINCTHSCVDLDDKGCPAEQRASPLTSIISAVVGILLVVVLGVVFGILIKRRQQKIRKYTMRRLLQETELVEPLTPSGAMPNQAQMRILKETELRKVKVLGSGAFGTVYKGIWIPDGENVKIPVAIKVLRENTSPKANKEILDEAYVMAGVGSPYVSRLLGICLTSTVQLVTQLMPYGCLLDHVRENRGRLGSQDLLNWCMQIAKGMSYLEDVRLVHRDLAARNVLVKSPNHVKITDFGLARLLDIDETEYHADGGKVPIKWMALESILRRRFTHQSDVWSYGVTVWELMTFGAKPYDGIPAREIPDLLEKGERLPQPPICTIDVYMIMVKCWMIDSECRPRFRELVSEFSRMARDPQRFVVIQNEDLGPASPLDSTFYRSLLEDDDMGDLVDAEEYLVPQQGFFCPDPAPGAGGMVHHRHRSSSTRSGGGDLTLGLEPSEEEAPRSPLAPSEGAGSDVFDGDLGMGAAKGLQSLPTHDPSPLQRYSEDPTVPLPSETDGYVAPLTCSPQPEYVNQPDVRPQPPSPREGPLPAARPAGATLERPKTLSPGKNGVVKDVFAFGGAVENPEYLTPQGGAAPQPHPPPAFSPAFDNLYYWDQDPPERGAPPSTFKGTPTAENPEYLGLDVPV

- EphA2 phosphorylation: reduced
- ErbB2 phosphorylation: reduced
SMILES: COc1cc(/C=C(\C#N)C(N)=O)cc(CSc2nc3ccccc3s2)c1O [AG825]
